Experiment [1] addresses Cysteine protease ATG4B (Homo sapiens, UniProt Q9Y4P1). It is filed as functional.
In experiment [2] the target is T1, Ubiquitin-conjugating enzyme E2 N (Homo sapiens, UniProt P61088).
T1 sequence (P61088 whole entry): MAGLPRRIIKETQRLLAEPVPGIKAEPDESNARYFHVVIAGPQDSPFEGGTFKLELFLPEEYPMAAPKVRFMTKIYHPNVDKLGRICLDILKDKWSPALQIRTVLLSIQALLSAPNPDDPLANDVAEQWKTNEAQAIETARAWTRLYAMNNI
It is filed as functional.

In experiment [3] the test system is Streptococcus sp. 'group A'. Kind of experiment: Streptococcus pyogenes SK(-)GAS viability under kanamycin – luminescence, BacTiterGlo, confirmation, counter-screen for streptokinase expression inhibitor project, dose response (AID 1900). The experiment is classed as functional, organism-based. A general note: A counterscreen serves to expose hits that act by an unwanted route or on another target.

In experiment [4] the target is T2, Replicative DNA helicase DnaB (Mycobacterium tuberculosis, UniProt P9WMR3).
T2 sequence (P9WMR3 whole entry): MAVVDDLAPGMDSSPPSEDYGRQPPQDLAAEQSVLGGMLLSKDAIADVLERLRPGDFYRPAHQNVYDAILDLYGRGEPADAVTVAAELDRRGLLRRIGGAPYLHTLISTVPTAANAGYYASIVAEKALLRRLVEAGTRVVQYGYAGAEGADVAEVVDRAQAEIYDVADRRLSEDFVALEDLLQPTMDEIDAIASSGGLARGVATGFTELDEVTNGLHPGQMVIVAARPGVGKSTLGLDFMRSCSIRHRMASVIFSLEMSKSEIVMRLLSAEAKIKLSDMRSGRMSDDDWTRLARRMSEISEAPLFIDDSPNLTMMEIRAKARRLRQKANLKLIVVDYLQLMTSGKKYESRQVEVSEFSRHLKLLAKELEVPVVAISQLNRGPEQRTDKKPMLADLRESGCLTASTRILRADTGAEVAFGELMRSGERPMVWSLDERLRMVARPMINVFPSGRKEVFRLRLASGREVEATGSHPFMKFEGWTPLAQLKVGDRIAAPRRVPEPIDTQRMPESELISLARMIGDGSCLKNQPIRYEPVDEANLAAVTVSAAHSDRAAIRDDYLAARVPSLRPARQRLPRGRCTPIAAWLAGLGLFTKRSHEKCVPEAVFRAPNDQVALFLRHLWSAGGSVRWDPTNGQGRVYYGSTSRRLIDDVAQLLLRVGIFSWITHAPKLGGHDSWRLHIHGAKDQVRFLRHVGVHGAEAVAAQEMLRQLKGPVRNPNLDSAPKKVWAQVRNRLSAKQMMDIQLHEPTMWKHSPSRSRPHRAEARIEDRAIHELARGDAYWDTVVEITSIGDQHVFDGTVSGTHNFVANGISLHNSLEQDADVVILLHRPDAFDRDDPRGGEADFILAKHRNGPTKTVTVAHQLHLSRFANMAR
Kind of experiment: DnaB intein splicing inhibitors, dose response, biochemical, cell-free fluorescence (AID 449749). It is filed as functional.

Experiment [5] has as its target T3, Protein RecA (Mycobacterium tuberculosis, UniProt P9WHJ3).
T3 sequence (P9WHJ3 whole entry): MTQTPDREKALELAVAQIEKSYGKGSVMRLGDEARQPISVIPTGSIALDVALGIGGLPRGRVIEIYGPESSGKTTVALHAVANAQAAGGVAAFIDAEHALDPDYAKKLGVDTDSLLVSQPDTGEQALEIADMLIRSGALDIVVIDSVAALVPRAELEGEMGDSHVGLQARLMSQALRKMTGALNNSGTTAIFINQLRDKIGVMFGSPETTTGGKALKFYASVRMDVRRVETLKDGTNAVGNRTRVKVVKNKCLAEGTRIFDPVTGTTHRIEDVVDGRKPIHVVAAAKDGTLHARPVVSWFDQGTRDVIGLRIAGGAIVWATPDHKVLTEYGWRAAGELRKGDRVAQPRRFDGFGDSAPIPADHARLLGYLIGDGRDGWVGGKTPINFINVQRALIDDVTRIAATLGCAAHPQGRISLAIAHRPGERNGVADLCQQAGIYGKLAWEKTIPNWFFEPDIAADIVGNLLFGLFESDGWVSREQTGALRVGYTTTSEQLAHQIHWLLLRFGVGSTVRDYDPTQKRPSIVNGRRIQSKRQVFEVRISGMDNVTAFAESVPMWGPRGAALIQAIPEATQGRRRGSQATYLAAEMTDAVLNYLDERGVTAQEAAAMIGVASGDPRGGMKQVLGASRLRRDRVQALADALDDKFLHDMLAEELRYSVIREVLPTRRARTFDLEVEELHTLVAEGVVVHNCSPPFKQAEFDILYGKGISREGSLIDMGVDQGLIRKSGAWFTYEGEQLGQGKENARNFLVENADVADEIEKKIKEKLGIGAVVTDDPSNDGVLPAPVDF
Kind of experiment: Fluorescence Cell-Free Homogeneous Dose Retest to Identify Inhibitors of RecA-Intein Splicing Activity. [Related pubchem assays (depositor defined):AID2097, AID2223, AID489010, AID492950]. The experiment is classed as functional.

For experiment [6], the target named is T4, Streptokinase A (Streptococcus pyogenes serotype M1, UniProt P10520).
T4 sequence (P10520 whole entry): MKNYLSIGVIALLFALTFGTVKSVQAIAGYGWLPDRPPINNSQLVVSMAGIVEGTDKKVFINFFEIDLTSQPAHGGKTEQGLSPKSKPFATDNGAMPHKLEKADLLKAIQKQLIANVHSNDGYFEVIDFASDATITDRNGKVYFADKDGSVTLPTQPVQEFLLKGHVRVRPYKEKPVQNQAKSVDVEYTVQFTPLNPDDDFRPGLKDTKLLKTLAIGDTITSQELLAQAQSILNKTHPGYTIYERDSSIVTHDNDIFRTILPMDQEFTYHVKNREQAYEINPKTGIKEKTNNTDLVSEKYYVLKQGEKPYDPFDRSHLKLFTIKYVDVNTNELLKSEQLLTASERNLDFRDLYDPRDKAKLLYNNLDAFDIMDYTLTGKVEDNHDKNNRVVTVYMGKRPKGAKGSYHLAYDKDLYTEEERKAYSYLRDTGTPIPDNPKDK
Description: viability-normalized secreted streptokinase activity reduction – plasminogen activation absorbance, OD405, dose response (AID 1914).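 Further: secreted streptokinase activity via plasminogen activation per viability signal from cell pellet.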 The experiment is classed as functional, Streptococcus pyogenes M1 GAS.

Experiment [7] addresses Phospholipase A2 (Homo sapiens, UniProt P04054). It is filed as functional.
Experiment [8] in a line: Luminescence Cell-Based Dose Retest to Confirm Inhibitors of Cancer Stem Cells. [Related pubchem assays (depositor defined):AID2717, AID2721]. The experiment is classed as functional. The conditions noted are these: Homo sapiens.
Experiment [9] addresses T5, Bcl-2-related protein A1 (Mus musculus, UniProt Q07440).
T5 sequence (Q07440 whole entry): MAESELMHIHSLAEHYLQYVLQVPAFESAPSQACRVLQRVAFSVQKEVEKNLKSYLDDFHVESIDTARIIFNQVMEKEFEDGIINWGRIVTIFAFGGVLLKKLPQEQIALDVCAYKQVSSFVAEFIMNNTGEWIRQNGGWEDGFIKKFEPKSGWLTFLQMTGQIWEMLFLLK
It is filed as functional.

For experiment [10], the system named is Streptococcus. Kind of experiment: GAS UMAA2166 growth inhibition – luminescence, BacTiterGlo, counter-screen for streptokinase expression inhibitor project, dose response (AID 1915).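 Further: potency for reduction of bacterial viability or growth.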 The experiment is classed as functional, organism-based.
Experiment [11] concerns the target T1, Ubiquitin-conjugating enzyme E2 N. The experiment is classed as functional. The source holds these as a separate data set.

Our source for the IC50, EC50 and AC50 values is ChEMBL document CHEMBL1201862, “PubChem BioAssay data set” (2004).

Molecules are shown by their SMILES. The source made the active and inactive calls. Some results are limits rather than exact numbers.

Sequence of Phospholipase A2 (P04054 whole entry): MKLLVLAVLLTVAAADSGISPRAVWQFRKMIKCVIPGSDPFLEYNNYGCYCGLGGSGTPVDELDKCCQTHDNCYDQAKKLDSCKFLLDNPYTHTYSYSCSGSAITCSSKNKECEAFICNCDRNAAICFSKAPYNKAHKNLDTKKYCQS
Sequence of Cysteine protease ATG4B (Q9Y4P1 whole entry): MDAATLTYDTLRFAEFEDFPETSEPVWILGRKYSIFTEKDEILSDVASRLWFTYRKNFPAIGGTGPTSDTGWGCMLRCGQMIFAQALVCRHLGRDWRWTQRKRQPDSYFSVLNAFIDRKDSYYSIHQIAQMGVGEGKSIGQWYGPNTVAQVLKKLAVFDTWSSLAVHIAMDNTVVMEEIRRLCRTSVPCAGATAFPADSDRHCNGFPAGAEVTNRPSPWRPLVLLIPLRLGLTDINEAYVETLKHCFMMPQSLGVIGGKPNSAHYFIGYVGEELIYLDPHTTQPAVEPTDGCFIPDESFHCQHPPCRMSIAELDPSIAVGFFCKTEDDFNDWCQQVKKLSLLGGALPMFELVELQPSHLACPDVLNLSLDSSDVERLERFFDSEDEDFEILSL

A word on the IC50: it is the concentration at which inhibition is half-maximal. A word on the EC50: it is the concentration needed to bring the measured effect to its halfway point. The term AC50 denotes the concentration giving half of the maximal activity seen. For `CCCCCCCCOC(=O)c1c(CSC(=N)N)n(C)c2cc(Br)c(OC(C)=O)cc12`, the IC50 in experiment [1] is 8.63 µM (active); in experiment [2], 4.22 µM (active); in experiment [7] it was 52.2 µM (inactive); in [9], > 20 µM (inactive); in experiment [11], 12.4 µM (active). Besides, the concentration for a half-maximal effect (EC50) is 2.05 µM (active) in experiment [3], 1.57 µM (active) in experiment [5], > 150 µM (not active) in experiment [6] and 8.01 µM (active) in [10]. The AC50 was 4.36 µM (active) in experiment [4] and 2.7 µM (active) in experiment [8].
